We go through nine compounds from article PMC11898488, “A2A Adenosine Receptor Antagonists and Their Efficacy in Rat Models of Parkinson’s Disease” (Cells, 2025).

Read-outs that look alike come from different tables or passages of the source. Bounds are passed on as bounds.

Assay [1] has as its target T1, human A2AAR (Homo sapiens, UniProt P29274).
T1 construct: expressed in transfected cells; host or cells: CHO cells, crude membrane fractions
Particulars: cited from earlier work.

Assay [2] has as its target T2, human A3AR (Homo sapiens, UniProt P0DMS8).
T2 construct: expressed in transfected cells; host or cells: CHO cells, crude membrane fractions
T2 sequence (P0DMS8 1-318): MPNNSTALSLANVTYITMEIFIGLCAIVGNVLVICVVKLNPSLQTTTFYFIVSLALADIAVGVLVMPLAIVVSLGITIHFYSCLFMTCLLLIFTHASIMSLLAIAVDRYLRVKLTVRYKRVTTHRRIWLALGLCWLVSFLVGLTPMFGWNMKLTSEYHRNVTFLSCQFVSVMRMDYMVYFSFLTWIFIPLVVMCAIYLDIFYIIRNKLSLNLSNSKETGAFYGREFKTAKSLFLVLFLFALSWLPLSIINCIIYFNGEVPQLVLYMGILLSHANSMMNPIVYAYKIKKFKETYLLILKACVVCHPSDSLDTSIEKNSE
The conditions noted are these: [3H]-NECA displacement, human A3AR in CHO cells; geometric mean with 95% confidence limits; read-out: Ki A3; cited from earlier work.

The target in assay [3] is T1, human A2AAR. Put plainly: Radioligand binding, displacement of [3H]NECA at human A2AAR in CHO cells. Particulars: for Selectivity A1/A2A / Selectivity A3/A2A: ratio of Ki values at human ARs; for Ki: [3H]-NECA displacement, geometric mean with 95% confidence limits, read-out: Ki A2A. The protocol: (§1) The radioligand binding experiments were carried out exactly as described previously. For A1AR binding, 1 nM [^3H]CCPA was used as a radioligand, whereas 30 and 10 nM [^3H]NECA were used for A2A and A3 ARs, respectively. Nonspecific binding was determined in the presence of 1 mM theophylline (A1AR) or […] R-PIA (A2A and A3 ARs). Ki values were calculated from competition curves by nonlinear curve fitting with the program SCTFIT [31].
(§2) CHO cells stably transfected with human ARs were grown adherently and maintained in Dulbecco’s Modified Eagles Medium with nutrient mixture F12 (DMEM/F12) without nucleosides, containing 10% fetal calf serum, penicillin (100 U/mL), streptomycin (100 μg/mL), L-glutamine (2 mM), and Geneticin (G-418, 0.2 mg/mL) at 37 °C in 5% CO2/95% air, as described earlier. For radioligand binding studies and measurement of adenylyl cyclase activity, crude membrane fractions were prepared from fresh or frozen cells with two different protocols described earlier. The determination of adenylyl cyclase activity followed the procedure described earlier. IC50 values for the inhibition of adenylyl cyclase stimulated (in the case of A2BAR) with 5 μM NECA were calculated with the Hill equation and converted to Ki values with the Cheng and Prusoff equation [32].
(§3) [^3H]CCPA (2-chloro-N^6-cyclopentylAdo) and [^3H]NECA (5′-N-ethylcarboxamidoAdo) were used as specific radioligands at A1ARand A2A / A3 ARs, respectively. Furthermore, the ability of the same compounds to inhibit NECA-stimulated adenylyl cyclase activity was evaluated at the A2BAR subtype. The results of the binding studies (A1, A2A, and A3 ARs) and functional data (A2BAR) are reported in Table 1 as Ki or IC50 values in nM, together with the data on the reference compounds 1–3.
(In a radioligand displacement assay an active substance lowers the binding of a labelled ligand.)

Assay [4] concerns the target T3, human A2BAR (Homo sapiens, UniProt P29275).
T3 construct: expressed in transfected cells; host or cells: CHO cells, crude membrane fractions
T3 sequence (P29275 1-332): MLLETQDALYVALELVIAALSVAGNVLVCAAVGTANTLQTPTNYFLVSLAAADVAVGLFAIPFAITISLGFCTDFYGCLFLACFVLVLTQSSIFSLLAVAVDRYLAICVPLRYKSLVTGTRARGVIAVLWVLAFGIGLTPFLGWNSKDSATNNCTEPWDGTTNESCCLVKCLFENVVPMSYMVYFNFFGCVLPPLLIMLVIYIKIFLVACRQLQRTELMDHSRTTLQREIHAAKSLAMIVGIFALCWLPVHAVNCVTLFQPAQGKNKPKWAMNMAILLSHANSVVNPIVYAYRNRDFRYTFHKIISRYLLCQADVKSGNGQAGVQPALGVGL
The conditions noted are these: inhibition of NECA-stimulated AC activity, CHO cells expressing human A2BAR; geometric mean with 95% confidence limits; read-out: IC50 A2B; cited from earlier work.

Assay [5] deals with T4, human A1AR (Homo sapiens, UniProt P30542).
T4 construct: expressed in transfected cells; host or cells: CHO cells, crude membrane fractions
T4 sequence (P30542 1-326): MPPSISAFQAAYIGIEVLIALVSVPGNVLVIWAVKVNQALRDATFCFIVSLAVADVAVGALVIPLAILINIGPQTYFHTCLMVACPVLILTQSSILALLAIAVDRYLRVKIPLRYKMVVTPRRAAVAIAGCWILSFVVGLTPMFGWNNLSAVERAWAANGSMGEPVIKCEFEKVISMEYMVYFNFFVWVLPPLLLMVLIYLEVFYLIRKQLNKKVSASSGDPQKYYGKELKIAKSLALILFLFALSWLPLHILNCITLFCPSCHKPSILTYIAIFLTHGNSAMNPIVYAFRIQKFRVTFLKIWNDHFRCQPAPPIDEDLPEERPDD
Particulars: [3H]-CCPA displacement, human A1AR in CHO cells; geometric mean with 95% confidence limits; read-out: Ki A1; cited from earlier work.

Assay [6] concerns the target T3, human A2BAR. Put plainly: Inhibition of NECA-stimulated adenylyl cyclase activity at human A2BAR. In kind it is biochemical. Particulars: inhibition of NECA-stimulated AC activity, CHO cells expressing human A2BAR, read-out: IC50 A2B. As to the method:
as §2, §3

The target of assay [7] is T4, human A1AR. Description: Radioligand binding, displacement of [3H]CCPA at human A1AR in CHO cells. Particulars: for Ki: [3H]-CCPA displacement, geometric mean with 95% confidence limits, read-out: Ki A1. As to the method:
as §1, §2, §3

The target of assay [8] is T2, human A3AR. Put plainly: Radioligand binding, displacement of [3H]NECA at human A3AR in CHO cells. Particulars: [3H]-NECA displacement, read-out: Ki A3. As to the method: as §1, §2, §3
Setting [9] is: [3H]-NECA displacement, human A2AAR in CHO cells, geometric mean with 95% confidence limits, read-out: Ki A2A.
Setting [10] is: geometric mean with 95% confidence limits.

T1 sequence (P29274 whole entry): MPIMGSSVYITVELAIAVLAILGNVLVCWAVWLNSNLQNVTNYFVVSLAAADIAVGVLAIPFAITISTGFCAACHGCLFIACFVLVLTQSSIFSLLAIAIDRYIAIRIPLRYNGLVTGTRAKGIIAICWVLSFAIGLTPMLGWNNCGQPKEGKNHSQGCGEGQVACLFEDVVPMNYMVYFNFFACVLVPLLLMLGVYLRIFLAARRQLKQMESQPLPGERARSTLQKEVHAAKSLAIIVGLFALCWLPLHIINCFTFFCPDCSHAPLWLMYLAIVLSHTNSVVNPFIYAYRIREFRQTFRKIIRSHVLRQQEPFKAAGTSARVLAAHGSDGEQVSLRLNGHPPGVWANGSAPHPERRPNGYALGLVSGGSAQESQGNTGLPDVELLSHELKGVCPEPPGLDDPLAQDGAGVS

For orientation: Ki means the dissociation constant of the complex between target and ligand, obtained from inhibition or displacement. As for `CCOc1nc2c(N)ncnc2n1CC` [ANR 94, 9-ethyl-8-ethoxyadenine, reference compound], the Ki on human A2AAR [1] (read-out: Ki at the human A2AAR) is 46 nM.
By IC50 is commonly meant the concentration that gives 50% inhibition. Consider `CCn1c(-c2ccco2)nc2c(N)nc(OCCc3ccccc3)nc21` [Compound 2, 9-ethyl-8-furyl-2-phenetoxyadenine], for which the Ki on human A3AR [2] was 16 nM; at human A2AAR [1] (setting [9]), 2.2 nM; on human A1AR [5], 5.8 nM. On human A2AAR [3], the “Selectivity A1/A2A” value is on record as 2.6. In addition, the “Selectivity A3/A2A” value on human A2AAR [3] came to 7.3. Also, at human A2BAR [4], the IC50 is 521 nM.
Regarding `CCn1cnc2c(N)nc(OCCc3ccccc3)nc21` [Compound 3, 9-ethyl-2-phenethoxyadenine], the inhibition constant Ki on human A3AR [2] is 7150 nM; at human A2AAR [1] (setting [9]) it was 120 nM; on human A1AR [5] it was 170 nM. At human A2AAR [3], the “Selectivity A1/A2A” value is given as 1.4. Moreover, at human A2AAR [3], the “Selectivity A3/A2A” value amounted to 59. Moreover, the IC50 at human A2BAR [4] was 45800 nM.
With `CCn1c(-c2cccs2)nc2c(N)nc(OCCc3ccccc3)nc21` [Compound 6], the values for the Ki at human A2AAR [3] (human A2AAR in CHO cells), at human A1AR [7] and at human A3AR [8] (setting [10]) were 7.7 nM, 21 nM and 0.027 µM, respectively. Also, the “Selectivity A1/A2A” value on human A2AAR [3] is given as 2.7. The “Selectivity A3/A2A” value at human A2AAR [3] came out at 3.5. For the same compound, the 50% inhibitory concentration (IC50) on human A2BAR [6] (setting [10]) stood at 4.99 µM.
In the case of `CCn1c(C2CCCO2)nc2c(N)nc(OCCc3ccccc3)nc21` (centres unmarked) [Compound 7], the Ki at human A2AAR [3] (human A2AAR in CHO cells) worked out at 81 nM; on human A1AR [7] it was 509 nM; on human A3AR [8] (setting [10]), 1.45 µM. Moreover, on human A2AAR [3], the “Selectivity A1/A2A” value was determined as 6.3. The “Selectivity A3/A2A” value at human A2AAR [3] stood at 18. Also, the IC50 on human A2BAR [6] (setting [10]) was determined as 38.9 µM.
For `CCn1cnc2c(N)nc(OCCc3ccc(OC)cc3)nc21` [Compound 9, 9-ethyl-2-(4-methoxyphenyl)ethoxyadenine], the Ki at human A2AAR [3] (human A2AAR in CHO cells) stood at 655 nM; on human A1AR [7] it was 1990 nM; at human A3AR [8] (setting [10]), 12.3 µM. On human A2AAR [3], the “Selectivity A1/A2A” value is listed as 3.0. The “Selectivity A3/A2A” value at human A2AAR [3] is on record as 19. In addition, the half-inhibitory concentration (IC50) at human A2BAR [6] (setting [10]) came out at 63.7 µM.
With `CCn1c(Br)nc2c(N)nc(OCCc3ccc(OC)cc3)nc21` [Compound 10, 8-bromo-9-ethyl-2-(4-methoxyphenethoxy)-9H-purin-6-amine], the Ki at human A2AAR [3] (human A2AAR in CHO cells) is 28 nM; at human A1AR [7] it was 197 nM; on human A3AR [8] (setting [10]), 4.06 µM. Moreover, at human A2AAR [3], the “Selectivity A1/A2A” value stood at 7.1. In addition, the “Selectivity A3/A2A” value on human A2AAR [3] is 146. Further, at human A2BAR [6] (setting [10]), the half-inhibitory concentration (IC50) was 9.19 µM.
For the compound `CCn1c(-c2ccco2)nc2c(N)nc(OCCc3ccc(OC)cc3)nc21` [Compound 11], the inhibition constant (Ki) on human A2AAR [3] (human A2AAR in CHO cells) turned out to be 7.1 nM; on human A1AR [7], 39 nM; on human A3AR [8] (setting [10]), 0.073 µM. Further, the “Selectivity A1/A2A” value on human A2AAR [3] was found to be 5.5. Also, the “Selectivity A3/A2A” value at human A2AAR [3] worked out at 10. In addition, the half-maximal inhibitory concentration (IC50) at human A2BAR [6] (bound given in µM) is above 100 µM.
Take `CCn1cnc2c(N)nc(Oc3ccc(CCO)cc3)nc21` [Compound 13, 2-(4-((6-amino-9-ethyl-9H-purin-2-yl)oxy)phenyl)ethan-1-ol]: at human A2AAR [3] (human A2AAR in CHO cells), the Ki came to 7080 nM and the “Affinity at A2A AR, in words” value is “µM affinity”. In addition, the “Selectivity A1/A2A” value on human A2AAR [3] is reported as 3.2. Also, the IC50 at human A2BAR [6] (bound given in µM) is above 100 µM. In addition, at human A1AR [7], the “Affinity at A1 AR, in words” value is given as “µM affinity” and the inhibition constant (Ki) amounted to 22900 nM. The Ki on human A3AR [8] (bound given in µM) is above 100 µM.
